Results published in US11124510B2, “Alkyl chain modified imidazoquinoline TLR7/8 agonist compounds and uses thereof” (Dynavax Technologies Corporation, priority 2017, dated 2021).

What was measured:
CT26 colon carcinoma [1] = assay: Anti-tumor efficacy of squalene oil-in-water nanoemulsion with or without AH-1 peptide in two flank CT26 colon carcinoma-bearing mice; type: in vivo
Protocol: The effect of repeated weekly doses of intratumorally-delivered pharmaceutical compositions comprised of Compound No. 63-10 formulated in a squalene-based oil-in-water nanoemulsion that was co-formulated with the CT-26 tumor associated AH-1 […] peptide (immunodominant epitope sequence from the endogenous retroviral gene product gp70; see e.g., Rice J, Buchan S and Stevenson F 2002 J Immunol 169:3908-3913) on injected and distal tumor growth inhibition was assessed in CT26 colon carcinoma-bearing Balb/c mice bearing tumors in 2 flanks. All in vivo procedures were conducted in accordance with approved IACUC protocols. The animals were housed in a facility that is accredited by the AALAC. Wild-type female Balb/c mice (15-20 g) were obtained from Envigo (Hayward, Calif.) and acclimated for 2-3 days prior to use.
Pharmaceutical compositions comprised of squalene-based oil-in-water nanoemulsions were made generally as described in Example B2-2. […] Right (injected) and left (distal) tumor volumes were then measured twice weekly from days 8 through day 30 with calipers, with tumor volumes calculated using the formula: length, multiplied by width, multiplied by width, divided by 2.

CT26 colon carcinoma [2] = assay: Anti-tumor efficacy, repeated intratumoral dosing in CT26 colon carcinoma-bearing wild-type mice; type: in vivo; details: 0.5-20 μg in 95% sesame oil/5% ethanol
Protocol: The effect of repeated weekly doses of intratumorally delivered pharmaceutical compositions comprised of Compound No. 63-10, 63-18, or 63-33 formulated in 95% sesame oil/5% ethanol (v/v) on tumor growth inhibition was assessed in syngeneic CT26 colon carcinoma-bearing Balb/c mice. All in vivo procedures were conducted in accordance with approved Institutional Animal Care and Use Committee (IACUC) protocols. The animals were housed in a facility that is accredited by the Association for Accreditation and Laboratory Animal Care (AALAC, Frederick, Md.). Wild-type female Balb/c mice (15-20 gm) were obtained from Envigo (Hayward, Calif.) and acclimated for 2-3 days prior to use.
The pharmaceutical compositions were made with the three compounds at final concentrations of 5, 50, and 200 μg/mL in a manner similar to that described in Example B2-1. […] On day 0, mice were anesthetized with 1% isoflurane and 80,000 CT26 tumor cells in 200 uL of RMPI-1640 culture media plus 2.5% fetal bovine serum were injected subcutaneously in the right flank. Tumors were allowed to grow until they were ˜35 mm^3, at which point animals were assigned to groups to begin treatment. Mice were injected weekly for 4 weeks intratumorally with 100 uL of a pharmaceutical composition comprising 20, 5, or 0.5 μgs of Compound No. 63-10, or 20 or 5 μgs of Compound Nos. 63-18, or 63-33 formulated in 95% sesame oil/5% ethanol (v/v), or a vehicle control, twice weekly for 3 weeks (experimental days 9, 12, 16, 19, 23, and 26). The TLR9 CpG agonist was injected intratumorally with 100 μL of a pharmaceutical composition comprised of 50 μgs of compound formulated in phosphate buffered saline on the same dosing schedule. Tumor sizes were measured twice weekly from days 8 through day 30 with calipers, with tumor volumes calculated using the formula: length, multiplied by width, multiplied by width, divided by 2.

With `CCCCCCCCCCCCCC(=O)NCc1ccc(Cn2c(CCCC)nc3c(N)nc4ccccc4c32)cc1` [Compound No. 63-10, N-(4-((4-amino-2-butyl-1H-imidazo[4,5-c]quinolin-1-yl)methyl)benzyl)tetradecanamide] the “tumor growth inhibition in the distal (left) tumor compared to the nanoemulsion vehicle control” value (CT26 colon carcinoma [1]; day 23, 50 ng intratumoral days 8, 12, 16, 20) was “not significantly different from the vehicle control”, the “tumor growth inhibition in the injected (right) tumor compared to the nanoemulsion vehicle control” value (CT26 colon carcinoma [1]; day 27, 50 ng intratumoral days 8, 12, 16, 20) was “not significantly different from the vehicle control” and the “CT26 tumor growth control compared to the vehicle control” value (CT26 colon carcinoma [2]) was “robust CT26 tumor growth control”.
